Data: ChEMBL document CHEMBL3507680, “University of Dundee, Gates Library screen for HepG2 cell viability”

experiment: Human HepG2 cell viability assay in 384 well format; type: toxicity, cell-based; set-up: dose 125 nL, time 70.5 hour; concentration not given beside the values; details: HepG2 cells, read-out: Inhibition

Point of comparison: `Cc1ccsc1[C@@H]1CCN(C(=O)CCC(=O)c2ccccc2)C[C@H]1O`, cytotoxicity at 70.5 h -9.94%. Against it:
- CCCOC(C)C(=O)N1CCC(O)(c2ccc3nc(C)ccc3c2)CC1 (stereo not given) — higher, -3.14%
- CN(C)CC1CSCCCN1S(=O)(=O)Cc1ccc(C(F)(F)F)cc1 (stereo not given) — higher, -0.0412%
- CN(CC(=O)N1CCCC1)C(=O)c1ccccc1F — lower, -13.9%
- CC(C)c1noc(CN(C)C(=O)C2COc3ccccc3C2)n1 (stereo not given) — higher, -7.56%
- COc1ncccc1C(=O)N1CCC(CNC(C)=O)CC1 — lower, -11.5%
- N#Cc1c(CN2CCCCC2Cn2cncn2)cn2ccccc12 (stereo not given) — higher, 5.14%
- CCn1c(CN2CCN(CC(N)=O)CC2)nc2c(F)cccc21 — higher, -0.996%
- N#CCCN(Cc1ccccn1)C(=O)c1cccc(CN2CCCC2)c1 — higher, -1.86%
- Cc1csc2c(C3CCN(C(=O)Cn4cncn4)CC3)nc(C)n12 — higher, -2.36%
- CCOCCNC(=O)C1CCC(=O)N(CCc2ccc(Cl)cc2)C1 (stereo not given) — higher, -3.36%
- CC(=O)N1CCCC1C(=O)NCCOc1ccc(C(C)C)cc1 (stereo not given) — higher, -1.19%
- O=C(Nc1nc(-c2ccccc2)ns1)N1CCC(F)CC1 — higher, -3.26%
- Cc1cncc(C2CCCN(Cc3ccncc3)C2)n1 (stereo not given) — higher, 13.6%
- CC(=O)N1CCO[C@@H]2CN(S(=O)(=O)c3cccnc3)C[C@@H]2C1 — higher, 0.618%
- c1cnc(N2CCOCC3(CCN(c4cnccn4)CC3)C2)nc1 — higher, -8.75%
- CCCS(=O)(=O)NC(C)C(=O)NCc1ccc(N2CCCC2)nc1 (stereo not given) — higher, -7.44%
- Cc1cccc(C(=O)N2Cc3ccccc3C3(CCN(C)CC3)C2)n1 — higher, 7.65%
- COCCN(Cc1ccsc1)C(=O)c1c(C)cc(C)[nH]c1=O — higher, -1.09%
- N#CCCCS(=O)(=O)NC1(c2cccc(Br)c2)CC1 — higher, -8.99%
- CCN(CC)C(=O)CN(C)C(=O)c1ccc(-c2ccsc2)nc1C — higher, 33.4%
- CCc1c(C)nn(CCNC(=O)C2CCCN(C(=O)N(C)C)C2)c1C (stereo not given) — lower, -10.4%
- O=S1(=O)N=C(SCc2ccc(Cl)cc2)Nc2ccc(F)cc21 — higher, 7.01%
- Cc1ccc(CN2CC(C(=O)N3CCCC3)C3(CCOCC3)C2)s1 (stereo not given) — higher, -9.91%
- CCCN1CCN(C(=O)c2ccnc(N)c2)[C@H]2CS(=O)(=O)C[C@H]21 — higher, 2.28%
- Cc1cc(CNS(C)(=O)=O)ccc1N(C)C — higher, -7.39%
- COc1ccc(-c2cnc(CN3CCCC3Cn3cccn3)o2)cc1 (stereo not given) — higher, -7.48%
- O=C(CNc1nc(C(F)(F)F)cs1)N1CCc2sccc2C1 — higher, -8.73%
- c1ccc(-c2nc(CN3CCCC3Cn3cncn3)co2)cc1 (stereo not given) — higher, -7.46%
- Cc1nc(C2CCCN2C(=O)COCc2ccccc2)no1 (stereo not given) — lower, -10.2%
- COCCc1noc(-c2ccc(-c3cc[nH]n3)nc2)n1 — higher, -1.45%
- CNC(=O)CCCNc1cc(C)nc2cc(C)nn12 — higher, 5.3%
- CC[C@@H]1N(C)CCC[C@]12CCC(=O)N2Cc1ccncc1 — higher, 0.423%
- CN(Cc1coc(-c2ccccc2)n1)CC1CCCN1c1cccnn1 (stereo not given) — higher, 4.57%
- CC1CCCN(CCNC(=O)c2cncnc2C(C)C)C1 (stereo not given) — higher, -4.07%
- Cc1ccc(C)c(S(=O)(=O)NCCNc2ccc(-n3cccc3)nn2)c1 — higher, -7.55%
- COc1ncccc1C(=O)NC1CCOc2ccccc21 (stereo not given) — higher, -6.62%
- COc1ccc(C(=O)NC2CC2)c(OC2CCN(CC3CC3)CC2)c1 — higher, -2.04%
- O=C(NCC1CC1)C1CCC2(CCNCC2)C1 (stereo not given) — higher, -2.15%
- O=C(NCCc1cccnc1)NCCc1cccs1 — higher, 2.09%
- CC1CN(C)c2ccccc2CN1C(=O)c1cnsn1 (stereo not given) — higher, -0.187%
- Cc1nc(CO[C@H]2CN(C(=O)c3ccc[nH]3)[C@@H]3COC[C@H]23)cs1 — lower, -13%
- Cc1ccccc1C1CCN(CCn2cc(-c3nccn3C)nn2)C1 (stereo not given) — higher, 2.36%
- COCCn1ccnc1C1CCCN(c2ncnc3c2CCC3)C1 (stereo not given) — higher, -0.0473%
- COCCN1C(=O)[C@H]2CC[C@@H]1CN(C(=O)COc1ccc(F)c(Cl)c1)C2 — higher, -9.65%
